Data set [1] deals with RAW264.7. The data set can be described thus: Cytotoxicity against LPS-stimulated mouse RAW264.7 cells at 20 ug/ml. The data set is classed as cell-based.
Data set [2] has as its target T1, Nitric oxide synthase, inducible (Mus musculus, UniProt P29477).
T1 sequence (P29477 whole entry): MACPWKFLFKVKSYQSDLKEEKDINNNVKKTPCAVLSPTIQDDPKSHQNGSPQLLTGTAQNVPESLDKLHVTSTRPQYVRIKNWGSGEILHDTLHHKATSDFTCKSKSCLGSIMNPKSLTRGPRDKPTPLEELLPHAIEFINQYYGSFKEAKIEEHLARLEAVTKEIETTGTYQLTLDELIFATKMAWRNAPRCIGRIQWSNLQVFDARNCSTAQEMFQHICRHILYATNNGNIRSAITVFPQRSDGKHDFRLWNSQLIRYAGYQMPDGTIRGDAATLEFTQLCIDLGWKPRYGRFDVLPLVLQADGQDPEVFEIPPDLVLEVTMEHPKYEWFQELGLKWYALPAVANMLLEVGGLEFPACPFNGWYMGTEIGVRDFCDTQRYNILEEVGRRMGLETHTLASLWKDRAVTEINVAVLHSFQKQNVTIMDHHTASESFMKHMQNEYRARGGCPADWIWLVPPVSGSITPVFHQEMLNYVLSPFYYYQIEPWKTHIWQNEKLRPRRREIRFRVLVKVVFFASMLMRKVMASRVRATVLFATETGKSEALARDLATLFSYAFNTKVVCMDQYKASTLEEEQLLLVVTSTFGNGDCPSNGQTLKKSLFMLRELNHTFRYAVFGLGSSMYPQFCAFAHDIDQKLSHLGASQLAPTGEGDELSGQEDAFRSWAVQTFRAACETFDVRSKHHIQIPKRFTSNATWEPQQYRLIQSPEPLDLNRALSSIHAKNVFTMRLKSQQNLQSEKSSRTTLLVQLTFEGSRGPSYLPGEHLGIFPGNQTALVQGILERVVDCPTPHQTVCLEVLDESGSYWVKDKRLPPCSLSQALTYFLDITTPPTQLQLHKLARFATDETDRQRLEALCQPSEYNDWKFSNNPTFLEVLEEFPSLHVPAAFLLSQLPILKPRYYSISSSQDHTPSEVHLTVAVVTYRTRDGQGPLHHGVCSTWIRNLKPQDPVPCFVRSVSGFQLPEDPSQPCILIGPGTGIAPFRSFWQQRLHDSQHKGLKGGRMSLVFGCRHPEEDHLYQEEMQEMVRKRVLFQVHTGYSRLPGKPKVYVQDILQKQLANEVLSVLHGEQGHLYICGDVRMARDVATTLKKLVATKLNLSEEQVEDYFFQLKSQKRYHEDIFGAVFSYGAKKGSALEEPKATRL
Nature of the data set: Inhibition of iNOS-mediated nitric oxide production in LPS-stimulated mouse RAW264.7 cells after 24 hrs by Griess reaction analysis. Format: cell-based.

The test system of data set [3] is HL-60. The data set can be described thus: Cytotoxicity against human HL60 cells assessed as inhibition of cell proliferation after 24 hrs. As to conditions: HL-60, 24 h. The data set is classed as functional, cell-based.
Data set [4] concerns K562. The data set can be described thus: Cytotoxicity against human K562 cells assessed as inhibition of cell proliferation after 24 hrs. The data set is classed as functional, cell-based. As to conditions: K562, 24 h.

Here are results for ten compounds from ChEMBL document CHEMBL2331431, “Anti-inflammatory lanostanoids and lactone derivatives from Antrodia camphorata” (J Nat Prod, 2013).

Structures are written as SMILES. Values after ≈ are worked out from the molar mass of the structure shown.

`C/C(=C\CC[C@@H](C)[C@H]1CC[C@@]2(C)C3=C([C@H](O)C[C@]12C)[C@@]1(C)CCC(=O)C(C)(C)[C@@H]1CC3=O)C(=O)O`: in data set [1], the Activity entry is recorded as “Non-toxic”. Moreover, the IC50 in data set [2] was 5 µM.
The like results for `COc1cc(CCC(=O)O)oc(=O)c1` were, in that order, “Non-toxic” and greater than 20 µM.
Taken in the same sequence, the figures for `C/C(=C\CC[C@@H](C)[C@H]1CC[C@@]2(C)C3=C(C(=O)C[C@]12C)[C@@]1(C)CCC(=O)C(C)(C)[C@@H]1CC3=O)C(=O)O` were “Non-toxic” and 5 µM.
Taken in the same sequence, the figures for `COC(=O)C(C)CC(=O)C[C@@H](C)[C@H]1CC(=O)[C@@]2(C)C3=C(C(=O)C(=O)[C@]12C)[C@@]1(C)CCC(=O)C(C)(C)[C@@H]1CC3=O` (some centres not stated) were “Non-toxic” and 8.9 µM.
Take `CCOC(=O)C(C)CC(=O)C[C@@H](C)[C@H]1CC(=O)[C@@]2(C)C3=C(C(=O)C(=O)[C@]12C)[C@@]1(C)CCC(=O)C(C)(C)[C@@H]1CC3=O` (some centres not stated): the Activity result in data set [1] was “Non-toxic”. This compound also had a concentration for half-maximal inhibition (IC50) in data set [2] of 6.2 µM.
The like results for `CC(=O)O[C@H]1C[C@H]([C@H](C)CC(=O)CC(C)C(=O)O)[C@@]2(C)CC(=O)C3=C(CC[C@H]4C(C)(C)C(=O)CC[C@]34C)[C@]12C` (some centres not stated) were, in that order, “Non-toxic” and 4.9 µM.
For `CC(CC(=O)C[C@@H](C)C1=CC(=O)[C@@]2(C)C3=C(C(=O)C[C@]12C)[C@@]1(C)CCC(=O)C(C)(C)[C@@H]1C[C@@H]3O)C(=O)O` (some centres not stated), the Activity result in data set [1] was “Non-toxic”. The same compound registered an IC50 in data set [2] greater than 20 µM.
The like results for `COCC1(O)OC(=O)C=C1C` (racemic) were, in that order, “Non-toxic” and greater than 20 µM.
`CCOC(=O)CC[C@@H](C)[C@H]1CC(=O)[C@@]2(C)C3=C(C(=O)C[C@]12C)[C@@]1(C)CCC(=O)C(C)(C)[C@@H]1C[C@@H]3O` [ETHYL LUCIDENATE A]: the values for the 50% inhibitory concentration (IC50) in data set [3], in data set [4] and in data set [2] were 30 µg/mL (≈ 61.6 µM), 30 µg/mL (≈ 61.6 µM) and 10.8 µM, respectively. In addition, in data set [1], the Activity entry is recorded as “Non-toxic”.
With `CCOC(=O)CC[C@@H](C)[C@H]1CC(=O)[C@@]2(C)C3=C(C(=O)C[C@]12C)[C@@]1(C)CCC(=O)C(C)(C)[C@@H]1CC3=O` [ETHYL LUCIDENATE F], the Activity entry in data set [1] was “Non-toxic”. Besides, the 50% inhibitory concentration (IC50) in data set [2] is greater than 20 µM.

The term IC50 denotes the concentration that inhibits the measured activity by half.
